From patent US6455585B1, “Esters derived from substituted phennyl-cyclohexyl compounds” (Vita Invest, S.A., priority 1998, dated 2002)

Columns and labels:
[1] = tested on: Male Swiss mice; experiment: Hot plate method, analgesic activity in mice; format: in vivo; settings: for % response time increase on hot plate: 20 μmol/kg, oral adm., n = 20-40; for change in vivo at 15 mg/kg: Mus musculus, ip, 0.5 h, hot plate test, intraperitoneal adm., n = 20, read-out: % response time increase
Protocol: The pharmacological activity of the products of the present invention was tested in vivo in several experimental models, which are known to evaluate the pain in animals.
The method that was used is described by Eddy N. B. and Leimbach D. (J. Pharm. Exp. Ther. 107: 385-393, 1953). The analgesic effect of the products was evaluated analysing the behaviour of the animals on a hot surface at 55° C.±1° C.
Male Swiss mice weighing 20-25 g were used. The compounds being tested were administered orally or intraperitoneally 1 hour o 30 minutes before starting the test, respectively.
The process consisted of placing the animals on the plate and keeping them in a Plexiglas cylinder 25 cm high and 21 cm […]. The time the animals took to jump off the hot surface was determined. The animals were selected before starting the test so that those that took longer than 10 seconds to jump off were not included in the group that would receive treatment.
30 minutes after administering the product being tested, the test was repeated and the maximum time it took the animals to jump off was again recorded.
The results are expressed as the […] of jump time increase calculated as follows: [formula]
In order to determine the duration of the analgesic effect of the orally administered products, the analgesic activity was evaluated on the hot plate 1, 3, 6, 8, and 24 hours after the administration of the product, as well as the control group which received treatment only with the vehicle. The base responses were evaluated at 30 and 5 minutes prior to administering the products.

[2] = tested on: Male Swiss mice; experiment: Determination of the DL50 (acute single dose oral toxicity); format: in vivo; settings: oral single administration, 14 days observation
Protocol: b) Determination of the DL50 in the Products.
(EUDRA/S/87/011, Single Dose Toxicity, European Directive 75/318/EEC) (ICH S4, Toxicity Studies, single dose and repeated dose, CPMP vol III Feb. 87, Single dose toxicity)
Male Swiss mice of the same batch weighing 20-25 g are used in order to estimate the acute toxicity of the products.
Prior to administering the products, the animals were forced to fast for 12 hours with no intake of food but free access to water. Several subgroups of 10 animals were randomly selected and orally given increasing doses of the products in single administration, after which they remained under observation for a period of 14 days with free access to water and food. Finally, the number of dead animals of each subgroup was quantified and the value of the DL50 was calculated (1-2).

| Compound | % response time increase on hot plate [1] [%] | change in vivo at 15 mg/kg [1] [%] | DL50 approx. Oral adm. [2] [mg/kg] |
| --- | --- | --- | --- |
| COc1cccc(C2(O)CCCCC2CN(C)C)c1 (single isomer, unassigned) [Tramadol, (1R, 2R or 1S, 2S)-2-[(dimethylamino)methyl]-1-(3-methoxyphenyl) cyclohexanol, reference compound] | 87 ± 23 | 218 ± 98 | ~350 |
| CC(C)Cc1ccc(C(C)C(=O)Oc2cccc(C3(O)CCCCC3CN(C)C)c2)cc1 (stereo not drawn) [EXAMPLE 1, 3-(2-Dimethylaminomethyl-1-hydroxycyclohexyl)-phenyl 2-(4-Isobutyl-phenyl)-propionate] | 210 ± 88 | 568 ± 100 | ~900 |
| COc1ccc2cc(C(C)C(=O)Oc3cccc(C4(O)CCCCC4CN(C)C)c3)ccc2c1 (stereo not drawn) [EXAMPLE 2, 3-(2-Dimethylaminomethyl-1-hydroxyyclohexyl)-phenyl 2-(6-Methoxy-naphthalen-2-yl)-propionate] |  | 539 ± 50 |  |
| CN(C)CC1CCCCC1(O)c1cccc(OC(=O)C2CCn3c(C(=O)c4ccccc4)ccc32)c1 (stereo not drawn) [EXAMPLE 3, 3-(2-Dimethylaminomethyl-1-hydroxycyclohexyl)-phenyl 5-Benzoyl-2,3-dihydro-1H-pyrrolizine-1-carboxylate] |  | 416 ± 146 |  |
| CC(C)Cc1ccc(C(C)C(=O)Oc2cccc(C3=C(CN(C)C)CCCC3)c2)cc1 (stereo not drawn) [EXAMPLE 4, 3-(2-Dimethylaminomethyl-cyclohex-1-enyl)-phenyl 2-(4-Isobutyl-phenyl)-propionate] |  | 333 ± 134 |  |
| COc1ccc2cc(C(C)C(=O)Oc3cccc(C4=C(CN(C)C)CCCC4)c3)ccc2c1 (stereo not drawn) [EXAMPLE 5, 3-(2-Dimethylaminomethyl-cyclohex-1-enyl)-phenyl 2-(6-Methoxy-naphthalen-2-yl)-propionate] |  | 356 ± 151 |  |
| CN(C)CC1CCCCC1(O)c1cccc(OC(=O)c2ccccc2O)c1 (stereo not drawn) [EXAMPLE 6, 3-(2-Dimethylaminomethyl-1-hydroxy-cyclohexyl)-phenyl (RR-SS)-2-hydroxybenzoate] | 248 ± 72 | 546 ± 63 | ~550 |
| CN(C)CC1=C(c2cccc(OC(=O)c3ccccc3O)c2)CCCC1 [EXAMPLE 7, 3-(2-Dimethylaminomethyl-cyclohex-1-enyl)-phenyl 2-Hydroxybenzoate] |  | 634 ± 42 |  |
| CN(C)CC1CCCCC1(O)c1cccc(OC(=O)c2ccccc2OC(=O)N(C)C)c1 (stereo not drawn) [EXAMPLE 8, 3-(2-Dimethylaminomethyl-1-hydroxy-cyclohexyl)-phenyl (RR-SS)-2-dimethylcarbamoyloxy-benzoate] |  | 327 ± 65 |  |
